Results as given in US4567201A, “Diphenoxypropane derivatives and compositions of antiasthmatic and antiinflammatory agents thereof” (Takeda Chemical Industries, Ltd., priority 1981, dated 1986).
pIC50: −log10 of the molar value.

Assays:
Carrageenin edema = Carrageenin edema in rats; assay type: in vivo, rat; conditions: for Percent inhibition: carrageenin edema; for Mean volume of edematous swelling ±S.E.: in ml (unit assumed)
Procedure: The volume of the right hind paw of each rat was measured and the test compound suspended in 4% gum arabic solution was orally administered in an amount of 1 ml/100 g body weight. Immediately thereafter, a further amount of water was given to make the total dosing volume 5 ml. After 1 hour, 0.05 ml of a 1% suspension of carageenin in physiological saline was subcutaneously injected into the foot pad. Three hours after the carrageenin injection, the volume of the paw was measured again and the volume of the edema was calculated as a difference between this measured volume of the paw and the volume before the injection.
In the case of intravenous administration, a solution of the test compound in an aqueous solution of NaHCO3 was intravenously administered in an amount of 2.0 ml/100 g body weight and 5 ml of water per animal was orally administered. Then, carrageenin was injected subcutaneously to produce edema.

[1] = tested on: bronchoconstriction due to leukotriene D4 (LTD4); assay: Inhibition of bronchoconstriction due to intravenous LTD4 in guinea pigs (Konzett-Rossler); assay type: in vivo, guinea pig (Hartley strain); conditions: for Percent increase of overflow: 2 minutes before LTD4 10 μg/kg i.v., Mean±S.E.; for Percent inhibition: 2 minutes before LTD4 (Table 2)
Procedure: Guinea pigs of Hartley strain, both male and female, with body weights about 400 g were assigned to groups of 6 individuals, and the bronchoconstriction due to LTD4 were measured according to the method of Konzett-Rossler, [Konzett, H. and Rossler, R.: Naunyn-Schmiedebergs Archiv Fur Experimentelle Pathologie und Pharmakologie 195, 71-74 (1940)]. Each guinea pig was fixed in supine position under urethane anesthesia (1.5 g/kg, intraperitoneal) and the trachea was incised and connected to an artificial respiration apparatus, Rodent Respirator Model 680 [Harvard Apparatus Company, U.S.A.] via a cannula. The branch tube of this tracheal cannula was connected to Bronchospasm Transducer Model 7020 [Ugobasil Biological Research Apparatus, Italy]. Under the conditions of 5 to 7 ml of air per stroke, 70 strokes per minute and a lung loading pressure of 10 cmH2 O, the volume of overflowing air was recorded on Rectigraph-8S (Sanei Sokki Ltd., Japan) via a transducer. After administration of gallamine triethiodide (1 mg/kg, i.v.), 10 μ g/kg of histamine.2HCl was intravenously administered to investigate the response of the animal. Then, a solution of LTD4 in physiological saline (10 μg/kg) was intravenously administered and the bronchoconstriction elicited thereby was recorded for 15 minutes. Two minutes before LTD4 loading, compound (I)-A-1 was intravenously administered in a volume of 0.1 ml per 100 g body weight. Compound (I)-A-1 and LTD4 were administered through a cannula inserted into the jugular vein.
The compound (I)-A-1 was used as dissolved in physiological saline containing sodium hydrogen carbonate, and LTD4 was taken from a stock stored in methanol (1 mg/1 ml methanol) at -70° C.
The bronchoconstriction induced by intravenous administration of 10 μg/kg of LTD4 as given 2 minutes after the administration of physiological saline was maximal at the time of 30 seconds after the administration of LTD4 and, since then, was rapidly attenuated to about 50% at the time of 2 minutes but lasted till 15 minutes. Assuming that the response at complete obstruction is 100%, the values at 30 seconds and 15 minutes were 47.4±6.9% (n=6, Mean±S.E.) and 19.4±2.8% (Mean±S.E.), respectively (S.E.: standard error).
Then the present inventors studied the antagonistic action of the compound (I)-B against SRS-A using a synthetic LTD4 in the manner described on the compound (I)-A.
In each case, the bronchoconstriction following intravenous administration of 10 μg/kg of LTD4 at 2 or 30 minutes after the administration of physiological saline reached a maximum 30 seconds after the administration of LTD4, and then decreased to about 50% at 2 minutes after the administration of LTD4. The response continued for 15 minutes after the administration of LTD4. Repeated experiments using 6 animals per group gave mean degrees of maximum bronchoconstriction (30-second values) of 52.2-67.1% and 54.7-70.1%, respectively, as compared with the state of complete obstruction (100%). In experiment 1, the test compounds (I)-B-1, (I)-B-2 and Control compound-1 were each intravenously administered at two minutes before the administration of LTD4 and inhibitory effect on the bronchoconstriction was examined. The minimum effective doses (causing statistically significant differences as compared with the control group; significance level <5%) were 0.313, 0.313 and 5 mg/kg, respectively. The corresponding inhibition percentages were 41, 52 and 56%, respectively. In experiment 2, the test compounds were intravenously administered 30 minutes before the administration of LTD4 and the effect on the above response was examined. The minimum effective doses were 5, 5, and 20 mg/kg, respectively.
The test compounds were intravenously administered 2 minutes before the
intravenous administration of 10 μg/kg of LTD4.
The test compounds were intravenously administered 30 minutes before the
Each value was calculated from the volume (in percentage) of air […]

Acute toxicity in mice = assay type: in vivo, mouse (Jcl:ICR strain); conditions: 500 mg/kg oral
Procedure: Five 5-week-old male mice of Jcl:ICR strain, weighing 26.0 to 30.5 g, were used. Compound (I)-A-1 was suspended in a 5% solution of gum arabic and administered orally by gastric gavage at the level of 0.2 ml per 10 grams body weight.
Five 5-week-old male mice of Jcl:ICR strain, weighing 26.0 to 30.5 g, were used. Compound (I)-B-1 or (I)-B-2 was suspended in a 5% solution of gum arabic and administered orally by gastric gavage at the level of 0.2 ml per 10 grams body weight.

[2] = tested on: leukotriene D4 (LTD4)-induced contraction of the guinea pig ileum; assay: Anti-SRS-A activity: inhibition of LTD4-induced contraction of guinea pig ileum; conditions: 50% inhibition of LTD4-induced contraction (60-70% of maximum contraction), drug added 1 minute before LTD4
Description: The present inventors studied the antagonistic action of compound (I)-A against SRS-A using a synthetic LTD4 in the following manner.
The inhibitory effect of the drug on the contractile response (60-70% of maximum contraction) of the ileum of guinea pig (body weight 300-350 g, female and male) to leukotriene D4 (LTD4) was investigated. In Tyrode solution containing atropine (10^-7 M) and mepyramine (10^-6 M), 3×10^-10 or 10^-9 M of LTD4 was repeatedly permitted to act on the guinea pig ileum and after the amplitude of contraction had become constant, a solution of the test drug was added to a final concentration of 10^-9 to 10^-4 M. After 1 minute, the same concentration of LTD4 was further added and the anti-SRS-A activity of the drug was calculated from the change in contraction amplitude by means of the following equation. [formula]
To obtain the IC50 value, the mole concentration of the drug showing a 50% inhibition of the contractile response was determined from plots on a graph.
The drug was used as dissolved in dimethyl sulfoxide. The solvent was used in an amount less than 1% which would not exert any influence on the ileum.

Structure (SMILES): CCCc1c(OCC(O)COc2ccc(-c3nn[nH]n3)cc2Cl)ccc(C(C)=O)c1O (centres unmarked) [Compound (I)-A-1, 4-[3-[4-(tetrazol-5-yl)-2-chlorophenoxy]-2-hydroxypropoxy]-2-hydroxy-3-propylacetophenone]
- Percent inhibition (Carrageenin edema; 1 mg/kg i.v.): 19.2%
- Mean volume of edematous swelling ±S.E. (Carrageenin edema; 1 mg/kg i.v.): 0.442 ± 0.044
- Percent inhibition (Carrageenin edema; 10 mg/kg i.v.): 25.0%
- Mean volume of edematous swelling ±S.E. (Carrageenin edema; 10 mg/kg i.v., *p<0.05): 0.410 ± 0.046
- Mean volume of edematous swelling ±S.E. (Carrageenin edema; 50 mg/kg p.o., 3 hours after carrageenin, *p<0.05): 0.487 ± 0.023
- Percent inhibition (Carrageenin edema; 50 mg/kg p.o.): 15.0%
- antiinflammatory activity (in words) (Carrageenin edema; rat, in vivo): has an antiinflammatory activity
- Percent increase of overflow ([1]; 0.08 mg/kg i.v., 8 animals): 29.1 ± 7.5%
- Percent inhibition ([1]; 0.08 mg/kg i.v.): 39%
- Percent increase of overflow ([1]; 0.313 mg/kg i.v., 6 animals): 28.1 ± 7.1%
- Percent inhibition ([1]; 0.313 mg/kg i.v.): 41%
- Percent increase of overflow ([1]; 1.25 mg/kg i.v., 6 animals, *p<0.05 vs physiological saline control): 23.4 ± 8.0%
- Percent inhibition ([1]; 1.25 mg/kg i.v.): 51%
- inhibition of LTD4 bronchoconstriction (in words) ([1]; 5 mg/kg i.v., 2 minutes before LTD4): substantially complete inhibition
- Percent increase of overflow ([1]; 5 mg/kg i.v., 6 animals, ***p<0.001 vs physiological saline control): 3.3 ± 2.1%
- Percent inhibition ([1]; 5 mg/kg i.v.): 93%
- inhibitory effect against LTD4 bronchoconstriction (in words) ([1]; intravenously administered 2 minutes before LTD4 dosing): remarkable inhibitory effect
- Autopsy findings (Acute toxicity in mice; after 1 week): did not reveal any abnormalities
- symptoms attributable to compound after oral administration (Acute toxicity in mice; male mice): no symptoms
- pIC50 [2]: 8.39
